Earlier results as cited in US8227223B2, “Method and apparatus for facilitating evaluating migration of cells in vitro” (Applied Biophysics, Inc., priority 2009, dated 2012).

Assays:
[1] = system: confluent bovine aortic endothelial cells
[2] = system: muscarinic receptor; details: CHO cells over expressing the muscarinic receptor
[3] = system: β-adrenergic receptor; details: BAEC endothelial cells

thrombin
change of impedance upon exposure (barrier function) [1]: drop in impedance

C[N+](C)(C)CCOC(N)=O [carbachol]
change of impedance upon binding of the agonist ([2]; impedance at 4000 Hz): doubling of impedance

CC(C)NCC(O)c1ccc(O)c(O)c1 (stereo not shown) [isoproterenol]
change of impedance of the cell layer upon agonist binding [3]: readily measured increase in the impedance

CN1CCN(CC(=O)N2c3ccccc3C(=O)Nc3cccnc32)CC1 [pirenzepine]
inhibition of the carbachol impedance response ([2]; antagonist against carbachol): can be inhibited
